Measurements reported in ChEMBL document CHEMBL3885861, “Open TG-GATES”.

Species: Rattus norvegicus
Test: Open TG-GATES - Regimen: Single
Assay type: toxicity, organism-based, Sprague-Dawley
Design: regimen Single, gender Male, age 6 weeks
Settings: in vivo, po, route gavage; for APTT / Bas / Eos / Fbg / Hb / Ht / Lym / MCH / MCHC / MCV / Mono / Neu / PT / Plat / RBC / Ret / WBC: tissue Blood; for KIDNEY_L / KIDNEY_R / KIDNEY_TOTAL: tissue Kidney; for LIVER: tissue Liver; for A/G / ALP / ALT / AST / BUN / CRE / Ca / Cl / DBIL / GLC / IP / K / LDH / Na / PL / RALB / TBIL / TC / TG / TP / gamma-GTP: tissue Plasma
[1] = 15 mg/kg, 3 h, dose level Middle
[2] = 15 mg/kg, 6 h, dose level Middle
[3] = 15 mg/kg, 9 h, dose level Middle
[4] = 15 mg/kg, 24 h, dose level Middle
[5] = 45 mg/kg, 24 h, dose level High

## CC(=N)S [THIOACETAMIDE]
[1]
  TERMINAL_BW: 190.8 g
  APTT: 16.9 s
  Bas: 0%
  Eos: 0.2%
  Fbg: 228 mg/dL
  Hb: 13.2 g/dL
  Ht: 39.8%
  Lym: 82%
  MCH: 21.7 pg
  MCHC: 33.1%
  MCV: 65.4 fL
  Mono: 8%
  Neu: 10%
  PT: 12.4 s
  Plat: 102.8 x10_4/uL
  RBC: 608.5 x10_4/ul
  Ret: 10%
  WBC: 130 x10_2/uL
  KIDNEY_L: 0.9 g
  KIDNEY_R: 0.9 g
  KIDNEY_TOTAL: 1.8 g
  LIVER: 8.9 g
  A/G: 2.4
  ALP: 868.5 IU/L
  ALT: 33.8 IU/L
  AST: 71 IU/L
  BUN: 11.8 mg/dL
  CRE: 0.5 mg/dL
  Ca: 10.9 mg/dL
  Cl: 104.5 meq/L
  DBIL: 0.0025 mg/dL
  GLC: 175.8 mg/dL
  IP: 9.6 mg/dL
  K: 4.4 meq/L
  LDH: 84.2 IU/L
  Na: 138.8 meq/L
  PL: 141.5 mg/dL
  RALB: 4 g/dL
  TBIL: 0.3 mg/dL
  TC: 81.5 mg/dL
  TG: 55 mg/dL
  TP: 5.7 g/dL
  gamma-GTP: 3.2 IU/L
[2]
  TERMINAL_BW: 187.8 g
  APTT: 17.2 s
  Bas: 0%
  Eos: 0.6%
  Fbg: 224.8 mg/dL
  Hb: 13.4 g/dL
  Ht: 40.5%
  Lym: 74.6%
  MCH: 21.6 pg
  MCHC: 33.2%
  MCV: 65.1 fL
  Mono: 5.8%
  Neu: 19.4%
  PT: 12.7 s
  Plat: 97.4 x10_4/uL
  RBC: 621.2 x10_4/ul
  Ret: 10%
  WBC: 125.4 x10_2/uL
  KIDNEY_L: 0.9 g
  KIDNEY_R: 0.9 g
  KIDNEY_TOTAL: 1.8 g
  LIVER: 8.4 g
  A/G: 2.1
  ALP: 924.4 IU/L
  ALT: 33 IU/L
  AST: 70.4 IU/L
  BUN: 10.2 mg/dL
  CRE: 0.6 mg/dL
  Ca: 10.5 mg/dL
  Cl: 104 meq/L
  DBIL: 0.022 mg/dL
  GLC: 171.4 mg/dL
  IP: 9.1 mg/dL
  K: 4.9 meq/L
  LDH: 77 IU/L
  Na: 137.2 meq/L
  PL: 142.8 mg/dL
  RALB: 3.7 g/dL
  TBIL: 0.4 mg/dL
  TC: 80 mg/dL
  TG: 73 mg/dL
  TP: 5.4 g/dL
  gamma-GTP: 1 IU/L
[3]
  TERMINAL_BW: 183.3 g
  APTT: 17.2 s
  Bas: 0%
  Eos: 0.6%
  Fbg: 226 mg/dL
  Hb: 13.2 g/dL
  Ht: 40.2%
  Lym: 67.2%
  MCH: 21.5 pg
  MCHC: 33%
  MCV: 65.1 fL
  Mono: 8.8%
  Neu: 23.4%
  PT: 13.3 s
  Plat: 107 x10_4/uL
  RBC: 617.4 x10_4/ul
  Ret: 9.1%
  WBC: 126.9 x10_2/uL
  KIDNEY_L: 0.8 g
  KIDNEY_R: 0.8 g
  KIDNEY_TOTAL: 1.7 g
  LIVER: 7.7 g
  A/G: 2.2
  ALP: 887.6 IU/L
  ALT: 31.6 IU/L
  AST: 71.6 IU/L
  BUN: 12.6 mg/dL
  CRE: 0.5 mg/dL
  Ca: 10.2 mg/dL
  Cl: 104.2 meq/L
  DBIL: 0.006 mg/dL
  GLC: 178.2 mg/dL
  IP: 9.8 mg/dL
  K: 4.5 meq/L
  LDH: 93.6 IU/L
  Na: 137.2 meq/L
  PL: 122.6 mg/dL
  RALB: 3.8 g/dL
  TBIL: 0.5 mg/dL
  TC: 71.6 mg/dL
  TG: 40.6 mg/dL
  TP: 5.6 g/dL
  gamma-GTP: 1.4 IU/L
[4]
  TERMINAL_BW: 202.6 g
  APTT: 16.4 s
  Bas: 0%
  Eos: 1%
  Fbg: 231.6 mg/dL
  Hb: 13.5 g/dL
  Ht: 40.7%
  Lym: 83.8%
  MCH: 21.9 pg
  MCHC: 33.1%
  MCV: 66.1 fL
  Mono: 6.2%
  Neu: 9%
  PT: 12.8 s
  Plat: 107.7 x10_4/uL
  RBC: 616 x10_4/ul
  Ret: 9.1%
  WBC: 163 x10_2/uL
  KIDNEY_L: 1 g
  KIDNEY_R: 0.9 g
  KIDNEY_TOTAL: 1.9 g
  LIVER: 10.2 g
  A/G: 2
  ALP: 915.6 IU/L
  ALT: 44.4 IU/L
  AST: 71 IU/L
  BUN: 17.2 mg/dL
  CRE: 0.5 mg/dL
  Ca: 10.6 mg/dL
  Cl: 103.8 meq/L
  DBIL: 0.014 mg/dL
  GLC: 179.6 mg/dL
  IP: 7.5 mg/dL
  K: 5.1 meq/L
  LDH: 98.6 IU/L
  Na: 137 meq/L
  PL: 164 mg/dL
  RALB: 3.9 g/dL
  TBIL: 0.3 mg/dL
  TC: 85.2 mg/dL
  TG: 149.8 mg/dL
  TP: 5.8 g/dL
  gamma-GTP: 2.4 IU/L
45 mg/kg, 3 h, dose level High
  TERMINAL_BW: 189.5 g
  APTT: 17.3 s
  Bas: 0%
  Eos: 0.6%
  Fbg: 232.5 mg/dL
  Hb: 13.5 g/dL
  Ht: 41%
  Lym: 71.2%
  MCH: 21.6 pg
  MCHC: 33%
  MCV: 65.4 fL
  Mono: 8.6%
  Neu: 20%
  PT: 12.4 s
  Plat: 115.5 x10_4/uL
  RBC: 627 x10_4/ul
  Ret: 9.5%
  WBC: 129.7 x10_2/uL
  KIDNEY_L: 0.8 g
  KIDNEY_R: 0.8 g
  KIDNEY_TOTAL: 1.7 g
  LIVER: 8.7 g
  A/G: 2
  ALP: 923 IU/L
  ALT: 36 IU/L
  AST: 73.6 IU/L
  BUN: 13.6 mg/dL
  CRE: 0.5 mg/dL
  Ca: 10.9 mg/dL
  Cl: 104.6 meq/L
  DBIL: 0 mg/dL
  GLC: 169.2 mg/dL
  IP: 9.7 mg/dL
  K: 4.4 meq/L
  LDH: 200.6 IU/L
  Na: 139.6 meq/L
  PL: 137.6 mg/dL
  RALB: 3.8 g/dL
  TBIL: 0.4 mg/dL
  TC: 84 mg/dL
  TG: 54.8 mg/dL
  TP: 5.6 g/dL
  gamma-GTP: 2 IU/L
45 mg/kg, 6 h, dose level High
  TERMINAL_BW: 187 g
  APTT: 17.2 s
  Bas: 0%
  Eos: 0.2%
  Fbg: 230.4 mg/dL
  Hb: 13.7 g/dL
  Ht: 41.3%
  Lym: 71%
  MCH: 21.8 pg
  MCHC: 33.1%
  MCV: 66 fL
  Mono: 6.2%
  Neu: 22.2%
  PT: 12.9 s
  Plat: 104.7 x10_4/uL
  RBC: 627.2 x10_4/ul
  Ret: 9.9%
  WBC: 118 x10_2/uL
  KIDNEY_L: 0.8 g
  KIDNEY_R: 0.8 g
  KIDNEY_TOTAL: 1.6 g
  LIVER: 8 g
  A/G: 1.9
  ALP: 836.6 IU/L
  ALT: 33.8 IU/L
  AST: 75.2 IU/L
  BUN: 10.2 mg/dL
  CRE: 0.6 mg/dL
  Ca: 10.4 mg/dL
  Cl: 104.4 meq/L
  DBIL: 0.024 mg/dL
  GLC: 162.4 mg/dL
  IP: 9.9 mg/dL
  K: 4.7 meq/L
  LDH: 155.4 IU/L
  Na: 138.2 meq/L
  PL: 129.8 mg/dL
  RALB: 3.6 g/dL
  TBIL: 0.4 mg/dL
  TC: 79.4 mg/dL
  TG: 34.8 mg/dL
  TP: 5.5 g/dL
  gamma-GTP: 1.8 IU/L
45 mg/kg, 9 h, dose level High
  TERMINAL_BW: 189.4 g
  APTT: 17 s
  Bas: 0%
  Eos: 0.6%
  Fbg: 224.4 mg/dL
  Hb: 13.1 g/dL
  Ht: 39.6%
  Lym: 71%
  MCH: 21.8 pg
  MCHC: 33%
  MCV: 66 fL
  Mono: 7.4%
  Neu: 21%
  PT: 14.1 s
  Plat: 100.8 x10_4/uL
  RBC: 600 x10_4/ul
  Ret: 10%
  WBC: 126.2 x10_2/uL
  KIDNEY_L: 0.8 g
  KIDNEY_R: 0.9 g
  KIDNEY_TOTAL: 1.7 g
  LIVER: 8 g
  A/G: 2
  ALP: 886 IU/L
  ALT: 41.2 IU/L
  AST: 93.2 IU/L
  BUN: 12.6 mg/dL
  CRE: 0.5 mg/dL
  Ca: 10.4 mg/dL
  Cl: 104.6 meq/L
  DBIL: 0.008 mg/dL
  GLC: 168.4 mg/dL
  IP: 10.4 mg/dL
  K: 4.4 meq/L
  LDH: 229.2 IU/L
  Na: 137.4 meq/L
  PL: 134.8 mg/dL
  RALB: 3.6 g/dL
  TBIL: 0.4 mg/dL
  TC: 84.8 mg/dL
  TG: 32.4 mg/dL
  TP: 5.4 g/dL
  gamma-GTP: 1.8 IU/L
[5]
  TERMINAL_BW: 186.6 g
  APTT: 21.2 s
  Bas: 0%
  Eos: 0.6%
  Fbg: 232 mg/dL
  Hb: 14.7 g/dL
  Ht: 44.9%
  Lym: 69.8%
  MCH: 21.2 pg
  MCHC: 32.8%
  MCV: 64.6 fL
  Mono: 1.8%
  Neu: 27.8%
  PT: 15.7 s
  Plat: 104.8 x10_4/uL
  RBC: 695.6 x10_4/ul
  Ret: 9%
  WBC: 91 x10_2/uL
  KIDNEY_L: 0.9 g
  KIDNEY_R: 0.9 g
  KIDNEY_TOTAL: 1.8 g
  LIVER: 9.3 g
  A/G: 2
  ALP: 1017.6 IU/L
  ALT: 137.2 IU/L
  AST: 713.8 IU/L
  BUN: 15.2 mg/dL
  CRE: 0.5 mg/dL
  Ca: 10.4 mg/dL
  Cl: 102.4 meq/L
  DBIL: 0.046 mg/dL
  GLC: 152 mg/dL
  IP: 8.5 mg/dL
  K: 4.7 meq/L
  LDH: 1117 IU/L
  Na: 135.8 meq/L
  PL: 142 mg/dL
  RALB: 3.8 g/dL
  TBIL: 0.3 mg/dL
  TC: 86.8 mg/dL
  TG: 64.6 mg/dL
  TP: 5.8 g/dL
  gamma-GTP: 1 IU/L
